Measurements: PubChem BioAssay AID1773 (Sanford-Burnham Center for Chemical Genomics, 2009)

Tested on: MDA-MB-435 TRAIL potentiation, ATPlite cytotoxicity, 24 h
Experiment: PubChem AID 1773
Conditions: stronger effect = higher value

SMILES: CSc1nc(-c2ccc(C)cc2)nc(C(Cl)Cl)n1
- cytotoxicity (at 5 µM): 50%
- cytotoxicity with 30 ng/mL TRAIL (at 5 µM): 91%
- cytotoxicity (compound 2.5 uM plus TRAIL 10, at 2.5 µM): 84%
- cytotoxicity (compound alone cytotoxicity, at 5 µM): -1%
- cytotoxicity (compound plus 100 ng/mL TRAIL, at 5 µM): 83%
